The target in one test is B-Raf delta1-415 (Homo sapiens, UniProt P15056). The test can be described thus: B-Raf kinase inhibition (MAPH filter plate, 33P-ATP, MEK1 substrate). As to conditions: read-out: Biochemical IC50 B-Raf. The method in brief:
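IC50 values come from dilution series (top 10 μM) measured by scintillation counting of 33P-labelled MEK1 retained on H3PO4-washed filters. Reactions ran 1 h at room temperature in pH 7.0 Mops buffer with MgCl2, MnCl2 and DTT, using 12.5 μCi/ml [γ-33P]ATP and B-Raf delta1-415 titrated to 50% turnover.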

The test system of a further test is HT-29 tumor cells. The test can be described thus: Anti-proliferative activity, SRB assay. It is filed as cell-based, human. As to conditions: Homo sapiens, HT-29, 72 h, 72 hours exposure, read-out: CELLULAR IC50 HT-29. A digest of the protocol:
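IC50 derived from % inhibition relative to DMSO controls, measured by sulforhodamine B binding (OD570) after TCA fixation. Cells (3,000-15,000 per well) were seeded a day ahead, then treated with graded compound concentrations for 72 hours.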
In general terms: In SRB staining, fixed cells bind dye roughly in proportion to their protein.

Chain of B-Raf delta1-415 (P15056 416-766): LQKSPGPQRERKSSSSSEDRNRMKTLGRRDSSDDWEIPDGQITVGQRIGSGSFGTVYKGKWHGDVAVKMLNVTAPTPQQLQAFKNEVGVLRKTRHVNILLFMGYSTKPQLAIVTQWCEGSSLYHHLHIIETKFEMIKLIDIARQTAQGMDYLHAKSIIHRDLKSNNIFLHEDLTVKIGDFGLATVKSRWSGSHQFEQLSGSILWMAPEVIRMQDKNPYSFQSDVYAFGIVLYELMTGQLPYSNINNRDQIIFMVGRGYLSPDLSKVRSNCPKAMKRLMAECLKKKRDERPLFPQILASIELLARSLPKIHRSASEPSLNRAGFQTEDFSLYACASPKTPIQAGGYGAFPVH

Consider `COn1c(=O)c(-c2c(Cl)cccc2Cl)cc2cnc(Nc3ccc(OCC(O)CO)cc3)nc21` (stereo not shown) [Compound 93, 6-(2,6-Dichlorophenyl)-2-(4-(2,3-dihydroxypropyl)oxyphenyl) amino-8-methoxy-pyrido[2,3-d]pyrimidin-7-one], for which the IC50 on B-Raf delta1-415 was less than 500 nM; with HT-29 tumor cells it was less than 1000 nM.
Take `COn1c(=O)c(-c2c(Cl)cccc2Cl)cc2cnc(Nc3cc(C(=O)N4CCNCC4)n(C)c3)nc21` [Compound 185, 6-(2,6-Dichlorophenyl)-8-methoxy-2-(5-piperazinocarbonyl-1-methyl-pyrrol-3-yl)-amino-pyrido[2,3-d]pyrimidin-7-one]: the values for the IC50 on B-Raf delta1-415 and in the test with HT-29 tumor cells were less than 100 nM and less than 1000 nM, respectively.
As for `COn1c(=O)c(-c2c(Cl)cccc2Cl)cc2cnc(Nc3ccc(CN4CC(O)C4)cc3)nc21` [Compound 168], the IC50 is less than 500 nM at B-Raf delta1-415 and less than 1000 nM in the test with HT-29 tumor cells.
As to `COn1c(=O)c(-c2c(Cl)cccc2Cl)cc2cnc(Nc3cc(C(=O)NC[C@@H](O)CO)n(C)c3)nc21` [Compound 117, 6-(2,6-Dichlorophenyl)-2-(5-(2-(R)-2,3-dihydroxyethylamino)carbonyl-1-methyl-pyrrol-3-yl)-amino-8-methoxy-pyrido[2,3-d]pyrimidin-7-one], the IC50 on B-Raf delta1-415 was less than 100 nM; in the test on HT-29 tumor cells, less than 10000 nM.
The like results for `CC(C)N1CCN(c2ccc(Nc3ncc4cc(-c5c(Cl)cccc5Cl)c(=O)n(OCC5CCOCC5)c4n3)cc2)CC1` [Compound 206, 6-(2,6-Dichlorophenyl)-8-(tetrahydropyran-4-ylmethyl)oxy-2-(4-(4-(1-methylethyl)piperazino)phenyl)-amino-pyrido[2,3-d]pyrimidin-7-one] were, in that order, less than 500 nM and less than 1000 nM.
For `COn1c(=O)c(-c2c(Cl)cccc2Cl)cc2cnc(Nc3cc(C(=O)N(C)CCOC(=O)C(C)(C)C)n(C)c3)nc21` [Compound 140, 6-(2,6-Dichlorophenyl)-8-methoxy-2-(5-N-(2-(2,2-dimethylpropanoyl)oxyethyl)-N-methyl-aminocarbonyl-1-methyl-pyrrol-3-yl)-amino-pyrido[2,3-d]pyrimidin-7-one], in that order: less than 500 nM and less than 1000 nM.
For `COCCOn1c(=O)c(-c2c(Cl)cccc2Cl)cc2cnc(Nc3cc(C(=O)N(C)CCOC)n(C)c3)nc21` [Compound 170, 6-(2,6-Dichlorophenyl)-8-(2-methoxyethyl)oxy-2-(5-N-(2-methoxyethyl)-N-methyl-aminocarbonyl-1-methyl-pyrrol-3-yl)-amino-pyrido[2,3-d]pyrimidin-7-one], in that order: less than 500 nM and less than 1000 nM.
For the molecule `CCCN1CCN(c2ccc(Nc3ncc4cc(-c5c(Cl)cccc5Cl)c(=O)n(OC)c4n3)cc2)CC1` [Compound 204, 6-(2,6-Dichlorophenyl)-8-methoxy-2-(4-(4-propylpiperazino)phenyl)-amino-pyrido[2,3-d]pyrimidin-7-one], the IC50 at B-Raf delta1-415 is less than 100 nM; in the test with HT-29 tumor cells it was less than 1000 nM.
Turning to `COCCOn1c(=O)c(-c2cc(NC(=O)c3cccc(C(F)(F)F)c3)ccc2Cl)cc2cnc(Nc3ccc(N4CCN(C)CC4)cc3)nc21` [Compound 107, 8-(2-Methoxyethyl)oxy-2-(4-(4-methylpiperazino)-6-(5-(3-trifluoromethylbenzoyl)amino-2-chloro-phenyl)-phenylamino)-pyrido[2,3-d]pyrimidin-7-one], the IC50 at B-Raf delta1-415 is less than 100 nM; with HT-29 tumor cells it was less than 1000 nM.
Turning to `COn1c(=O)c(-c2c(Cl)cccc2Cl)cc2cnc(Nc3cccc(-c4nnn[nH]4)c3)nc21` [Compound 130, 6-(2,6-Dichlorophenyl)-8-methoxy-2-(3-tetrazol-5-ylphenyl)-amino-pyrido[2,3-d]pyrimidin-7-one], the IC50 was less than 500 nM on B-Raf delta1-415 and greater than 10000 nM in the test with HT-29 tumor cells.
As to `COn1c(=O)c(-c2c(Cl)cccc2Cl)cc2cnc(Nc3cc(C(=O)NCCN4CCCC4)n(C)c3)nc21` [Compound 94, 6-(2,6-Dichlorophenyl)-8-methoxy-2-(5-(2-pyrrolidinoethyl)aminocarbonyl-1-methyl-pyrrol-3-yl)-amino-pyrido[2,3-d]pyrimidin-7-one], the IC50 at B-Raf delta1-415 is less than 500 nM; in the test on HT-29 tumor cells it was less than 1000 nM.
For `CC(C)(C)On1c(=O)c(Br)cc2cnc(Nc3ccccc3)nc21` [Compound 239], the IC50 on B-Raf delta1-415 and in the test with HT-29 tumor cells was greater than 10000 nM throughout.
Take `COn1c(=O)c(-c2c(Cl)cccc2Cl)cc2cnc(Nc3ccc(CNCCO)cc3)nc21` [Compound 178, 2-(4-(2-hydroxyethylamino)methyl-phenyl)-amino-6-(2,6-dichlorophenyl)-8-methoxy-pyrido[2,3-d]pyrimidin-7-one]: the IC50 was less than 500 nM at B-Raf delta1-415 and less than 1000 nM in the test on HT-29 tumor cells.
For `COn1c(=O)c(-c2c(Cl)cccc2Cl)cc2cnc(NCCOC(=O)[C@@H](N)C(C)C)nc21` [Compound 109, 2-((2-(S)-2-Amino-3-methylbutanoyloxy)ethyl)-amino-6-(2,6-dichlorophenyl)-8-methoxy-pyrido[2,3-d]pyrimidin-7-one], in that order: less than 500 nM and less than 10000 nM.
For `COn1c(=O)c(-c2c(Cl)cccc2Cl)cc2cnc(Nc3ccc(C(F)(F)F)c(Cl)c3)nc21` [Compound 133, 2-(3-Chloro-4-trifluoromethylphenyl)-amino-6-(2,6-dichlorophenyl)-8-methoxy-pyrido[2,3-d]pyrimidin-7-one], in that order: greater than 1000 nM and less than 10000 nM.
For `C/C=C/C(=O)Nc1ncc2cc(-c3c(C)cccc3C)c(=O)n(OC)c2n1` [Compound 96, 2-But-2-enoylamino-6-(2,6-dimethylphenyl)-8-methoxy-pyrido[2,3-d]pyrimidin-7-one], in that order: greater than 1000 nM and greater than 10000 nM.
For the molecule `COn1c(=O)c(-c2c(Cl)cccc2Cl)cc2cnc(Nc3ccccc3)nc21` [Compound 174, 6-(2,6-Dichlorophenyl)-8-methoxy-2-phenylamino-pyrido[2,3-d]pyrimidin-7-one], the IC50 at B-Raf delta1-415 and with HT-29 tumor cells was less than 1000 nM throughout.
For the molecule `COn1c(=O)c(-c2c(Cl)cccc2Cl)cc2cnc(Nc3cccc(NS(C)(=O)=O)c3)nc21` [Compound 119, 6-(2,6-Dichlorophenyl)-8-methoxy-2-(3-methylsulfonylaminophenyl)-amino-pyrido[2,3-d]pyrimidin-7-one], the results for the half-maximal inhibitory concentration (IC50) on B-Raf delta1-415 and in the test on HT-29 tumor cells were less than 100 nM and less than 1000 nM, respectively.
`Cn1cc(Nc2ncc3cc(-c4c(Cl)cccc4Cl)c(=O)n(OC[C@@H](O)CO)c3n2)cc1C(=O)NCCN1CCCC1` [Compound 103, 6-(2,6-Dichlorophenyl)-8-(2-(S)-2,3-dihydroxypropyl)oxy-2-(5-(2-pyrrolidinoethyl)aminocarbonyl-1-methyl-pyrrol-3-yl)-amino-pyrido[2,3-d]pyrimidin-7-one]: the IC50 was less than 500 nM on B-Raf delta1-415 and less than 1000 nM in the test on HT-29 tumor cells.
With `COn1c(=O)c(-c2c(Cl)cccc2Cl)cc2cnc(Nc3cc(C(=O)N4CCOCC4)n(C)c3)nc21` [Compound 137, 6-(2,6-Dichlorophenyl)-8-methoxy-2-(5-morpholinocarbonyl-1-methyl-pyrrol-3-yl)-amino-pyrido[2,3-d]pyrimidin-7-one], the IC50 at B-Raf delta1-415 was less than 100 nM; in the test on HT-29 tumor cells, less than 1000 nM.

The IC50 is the concentration at which inhibition is half-maximal.

The values above are taken from patent US8518958B2, “Pyrido [2,3-D] pyrimidines and their use as kinase inhibitors” (Forma Therapeutics, Inc., priority 2006, dated 2013).
